Measurements published in patent publication US10883116B2, “Transduction buffer” (Koninklijke Nederlandse Akademie van Wetenschappen, priority 2013, dated 2021).
Read-outs that look alike come from different tables or passages of the source.

Assays:
[1] = tested on: murine embryonic fibroblasts (MEFs); assay: β-Lactamase protein transduction assay (CCF2-AM), protocol 3/700; conditions: for protein transducing activity of hypertonicity-inducing compound: tonicity adjusted to 700 mOsm/Kg with the compound, 25 mM NDSB201 and osmoprotectants; for effect of endocytic pathway inhibitor on protein transduction / enhancement of protein transduction by GABA agonist: 1 μM β-lactamase; for enhancement of protein transduction by GABA agonist: 25 mM NDSB201 plus GABA agonist, NDSB201 alone = 100%; for protein transduction activity (in words): 25 mM compound, compared with NDSB201 (#01) or parent compound; for effect of growth factor or peptide on β-lactamase transduction of MEFs: 25 mM NDSB201, 30 mM Glycerol, 15 mM Glycine
Source text: To further characterize the protein transduction process we analyzed the effect of time, osmolality, transduction compound concentration and protein concentration on the transduction process. To this end, we set up a β-Lactamase protein transduction assay and measured intracellular β-Lactamase activity using CCF2-AM, an intracellular fluorescent β-Lactamase substrate that changes emission wavelength when cleaved by the enzyme (FIG. 3A). […] While we used the immortalized COS7 cell line in our initial studies, we wanted to know if the compound-mediated protein transduction would also allow the transduction of protein into primary cells. We therefore transduced murine embryonic fibroblasts (MEFs) with β-Lactamase (1 μM final concentration), using NaCl-adjusted hypertonic media (700 mOsm/Kg) and 25 mM NDSB201. β-Lactamase activity was set at 1 at the start of the experiment and relative intracellular β-Lactamase activity was measured as a function of time (FIG. 3B, bars). As a control, β-Lactamase transduction was measured in isotonic media in the presence of 25 mM NSDB201 (FIG. 3B, open circles).
β-lactamase transduction was performed using the 3/700 protocol above in murine embryonic fibroblasts (MEFs). A black, clear-bottom 96 well-plate was coated with 0.15 mg/ml of Poly-D-Lysine for 1 h at room temperature. 12,000 MEFs cells were seeded per well in MEF media without antibiotics. Next day, cells were transduced using the transduction protocol 3/700 as describe above. […] Na- or Rb-salt was added to adjust the final tonicity to 700 mOsm/Kg. […] After 3 hrs., the transduction media was replaced by fresh MEF media for 30 min. Subsequently, cells were washed once with phenol-red-free DMEM. β-lactamase activity was measured using the CCF2-AM kit following the manufacturer's instructions. In brief, 120 μl of CCF2-AM loading media was added per well and cells were incubated for 1 h at room temperature. Cells were washed two times with DMEM phenol-red free and incubated for an additional 30-60 min. Fluorescence emission was measured at […] and 510 nm following manufacturer's instructions. All tests were done in triplicate.

[2] = tested on: COS7 cells; assay: Oct4 luciferase reporter (6×OCT4-TK-Luc) protein transduction assay; format: cell-based
[3] = tested on: MEFs cells expressing GAL3-GFP protein; assay: GAL3-GFP macropinosome vesicle leakage reporter assay; conditions: 700/3 conditions
Description: Schematic representation of the GAL3-GFP reporter assay. Upon initiation of transduction, extracellularly applied protein is taken up into macropinosomes (grey vesicles). […] At the same time, the compromised macropinosome membrane now allows entry of cytosolic GAL3-GFP protein, which binds to—and accumulates at the intra-macropinosome carbohydrates resulting in a bright fluorescent signal (white vesicles). […] GAL3-GFP cells were incubated with transduction media at 700 mOsmol/Kg with or without the macropinocytosis inhibitor EIPA. Untreated cells were included as negative control.
For transduction to occur, proteins that have been taken by macropinocytosis have to be released into the cytosol. […] To test the efficacy of potential transduction compound candidates, we set up an assay to monitor macropinosome vesicle permeation. […] We set up a reporter system in which Galectin-3 protein is fused to GFP (GAL3-GFP). Cytosolic GAL3-GFP protein relocalises to the interior of permeabilized macropinosomes, whereby a multimer complex is formed with intense green fluorescent emission. MEFs cells expressing GAL3-GFP protein were transduced using the 700/3 conditions.

[4] = tested on: murine embryonic fibroblasts (MEFs); assay: BrdU incorporation (cell proliferation) after transduction of MEFs; conditions: BrdU 24 hrs after start of transduction, 25 mM compound, 700 mOsm/Kg
Description: Open circles indicate relative BrdU incorporation by the transduced cells. BrdU incorporation of untransduced cells was set at 100% and BrdU incorporation of mitomycin C-treated cells was set at 0%.
Cell proliferation was determined using the Cell Proliferation Elisa kit, Brdu (Roche) following manufacturer's instructions (Roche).

[5] = 3 hours, 700 mOsm/Kg NaCl, 25 mM NDSB201
[6] = 3 hours, 25 mM NDSB201, tonicity adjusted with NaCl

OC[C@H]1O[C@@H](O[C@@H]2[C@@H](CO)OC(O)(CO)[C@H]2O)[C@H](O)[C@@H](O)[C@H]1O (mixture of isomers) [Lactulose]
protein transducing activity of hypertonicity-inducing compound ([1]; 3 hours): failed to induce protein transduction

CN(C)CCCN1c2ccccc2Sc2ccc(Cl)cc21 [Chlorpromazine, reference compound]
effect of endocytic pathway inhibitor on protein transduction [1, 5]: ineffective in inhibiting protein transduction

[Cl-].[Cs+] [CsCl, caesium chloride]
protein transducing activity of hypertonicity-inducing compound ([1]; 3 hours): had protein transducing activity

C=C1[C@@H](C)[C@H]2[C@H](Cc3ccccc3)NC(=O)[C@]23[C@H](OC(C)=O)/C=C/[C@@](C)(O)C(=O)[C@@H](C)C/C=C/[C@H]3[C@@H]1O [Cytochalasin D, reference compound]
effect of endocytic pathway inhibitor on protein transduction [1, 5]: completely blocked protein transduction

CN(C)c1nc(N)c(C(=O)N=C(N)N)nc1Cl.Cl [DMA, 5-(N,N-dimethyl) amiloride hydrochloride, reference compound]
effect of endocytic pathway inhibitor on protein transduction [1, 5]: strongly inhibited

O=C(N/N=C/c1ccc(O)c(O)c1)c1cc2ccccc2cc1O [Dynasore, reference compound]
effect of endocytic pathway inhibitor on protein transduction [1, 5]: ineffective in inhibiting protein transduction

[Cl-].[K+] [KCl, potassium chloride]
protein transducing activity of hypertonicity-inducing compound ([1]; 3 hours): had protein transducing activity

C/C1=C/C(=O)O[C@@H]2C[C@@H](CC[C@H](C)/C=C\C=C\CC1)O[C@@](O)([C@@H]1CSC(=O)N1)C2 [Latrunculin A, reference compound]
effect of endocytic pathway inhibitor on protein transduction [1, 5]: completely blocked protein transduction

[Cl-].[Li+] [LiCl, lithium chloride]
protein transducing activity of hypertonicity-inducing compound ([1]; 3 hours): had protein transducing activity

OC[C@@H](O)[C@@H](O)[C@H](O)[C@H](O)CO [Manitol]
protein transducing activity of hypertonicity-inducing compound ([1]; 3 hours): failed to induce protein transduction

NCc1cc(=O)[nH]o1 [Muscimol, reference compound]
enhancement of protein transduction by GABA agonist ([1]; 3 hours, 700 mOsm/Kg): approximately 300%

[Cl-].[Na+] [NaCl, Sodium chloride]
osmolality beyond which cell loss was observed [1, 6]: > 850 mOsm/Kg | osmolality of maximal β-Lactamase transduction [1, 6]: 700-800 mOsm/Kg | protein transducing activity of hypertonicity-inducing compound ([1]; 3 hours): the highest activity | effect of omitting buffer component on Oct4-reporter activation by Oct4-VP16 protein [2]: abrogated Oct4-reporter activation

C[C@@H]1[C@H](O)[C@@H](C)/C=C/C=C/CC/C=C/C=C/C=C/C=C/C(O[C@H]2O[C@H](C)[C@@H](O)[C@H](N)[C@@H]2O)CC2O[C@](O)(CC(O)C(O)CCC(O)CC(O)CC(O)CC(=O)O[C@H]1C)CC(O)C2C(=O)O (some centres unmarked) [Nystatin, reference compound]
effect of endocytic pathway inhibitor on protein transduction [1, 5]: ineffective in inhibiting protein transduction

O=C1NC(=NS(=O)(=O)c2cccc3ccccc23)S/C1=C\c1ccc(Br)cc1 [Pitstop2, reference compound]
effect of endocytic pathway inhibitor on protein transduction [1, 5]: ineffective in inhibiting protein transduction

[Cl-].[Rb+] [RbCl, rubidium chloride]
protein transducing activity of hypertonicity-inducing compound ([1]; 3 hours): the highest activity

CP(=O)(O)CCCN [SKF-97541, reference compound]
enhancement of protein transduction by GABA agonist ([1]; 3 hours, 700 mOsm/Kg): approximately 300%

O=C([O-])[C@H](O)[C@@H](O)[C@H](O)[C@H](O)CO.[Na+] [Sodium Gluconate]
protein transducing activity of hypertonicity-inducing compound ([1]; 3 hours): efficiency similar to NaCl and RbCl

OC[C@@H](O)[C@@H](O)[C@H](O)[C@@H](O)CO [Sorbitol]
protein transducing activity of hypertonicity-inducing compound ([1]; 3 hours): failed to induce protein transduction

OC[C@H]1O[C@@](CO)(O[C@H]2O[C@H](CO)[C@@H](O)[C@H](O)[C@H]2O)[C@@H](O)[C@@H]1O [Sucrose]
protein transducing activity of hypertonicity-inducing compound ([1]; 3 hours): failed to induce protein transduction

O=S(=O)([O-])CCC[n+]1ccccc1 [compound 1, 3-(1-pyridino)-1-propanesulfonate, reference compound]
time after initiation of transduction at which intracellular β-Lactamase activity could be observed ([1]; 1 μM β-Lactamase, 700 mOsm/Kg NaCl, 25 mM NDSB201): 2.5 h | effect of higher compound concentrations under hyperosmotic conditions ([1]; 700 mOsm/kg, above 10-25 mM): cell loss | protein transduction activity (in words) ([1]; 3 hours, 700 mOsm/Kg): most efficient | transduction compound concentration at peak β-Lactamase transduction ([1]; 3 hours, 700 mOsm/kg NaCl, 1 μM β-Lactamase): 10 to 25 mM | effect of omitting buffer component on Oct4-reporter activation by Oct4-VP16 protein ([2]; COS7 cells): abrogated Oct4-reporter activation | Gal3-GFP localisation to macropinocytic vesicles (vesicle leakage) [3]: bright vesicle formation

C[N+]1(CCCS(=O)(=O)[O-])CCCCC1 [compound 03, 3-(1-methylpiperidine)-1-propanesulfonate, reference compound]
protein transduction activity (in words) ([1]; 3 hours, 700 mOsm/Kg): most efficient

CCC(C)(C)CCCS(=O)(=O)O [compound 07]
protein transduction activity (in words) ([1]; 3 hours, 700 mOsm/Kg): greatly diminished transduction activity | effect on cell proliferation / viability (BrdU incorporation, in words) [4]: severe cell cycle inhibition

NCC(=O)O [compound 18, Glycine]
protein transduction activity (in words) ([1]; 3 hours, 700 mOsm/Kg): little to no transduction activity | β-lactamase transduction activity when combined with reference compound #01 (reference set at 100%) ([1]; equimolar with NDSB201 (#01), 12.5 mM each, total 25 mM, 3 hours, 700 mOsm/Kg): approximately 15% | Gal3-GFP localisation to macropinocytic vesicles (vesicle leakage) [3]: did not localize into the macropinocytic vesicles

CCCCC(=O)O [compound 23, pentanoic acid]
protein transduction activity (in words) ([1]; 3 hours, 700 mOsm/Kg): greatly diminished transduction activity | effect on cell proliferation / viability (BrdU incorporation, in words) [4]: severe cell cycle inhibition

CCCCN [compound 24, n-butylamine]
protein transduction activity (in words) ([1]; 3 hours, 700 mOsm/Kg): greatly diminished transduction activity | effect on cell proliferation / viability (BrdU incorporation, in words) [4]: severe cell cycle inhibition

EGF: epidermal growth factor
effect of growth factor or peptide on β-lactamase transduction of MEFs ([1]; 3 hours, 700 mOsm/Kg): doubling of β-lactamase uptake

Insulin: Insulin
effect of growth factor or peptide on β-lactamase transduction of MEFs ([1]; 3 hours, 700 mOsm/Kg): small, but significant stimulatory effect

PDGF
effect of growth factor or peptide on β-lactamase transduction of MEFs ([1]; 3 hours, 700 mOsm/Kg): doubling of β-lactamase uptake
